# Patent publication US4973576A, “Bisphophonic acid derivatives and pharmaceutical compositions containing the same” (Yamanouchi Pharmaceutical Co., Ltd., priority 1987, dated 1990)
# Where “and” joins values, the source holds several entries; their conditions need not be identical. Equal values may be shown once.
# How the values were obtained:
# [1] = tested on: hypercalcemia induced by administration of parathyroid hormone (PTH); assay: Inhibitory effect on hypercalcemia induced by PTH in rats (serum Ca++); format: in vivo, male Wistar rats; conditions: mean ± S.E.
# Description: Rats of hypercalcemia induced by administration of parathyroid hormone (hereinafter referred to as "PTH") were used, and the decrement of the serum calcium amount by administration of the compound was measured.
# 30 μg/kg of human 1-34 PTH (manufactured by Peptide Laboratory) which was dissolved in a 0.1% BSA (bovine serum albumin)-containing physiological saline (content of the PTH is 6 μg/ml) was intravenously injected in an amount of 30 μg/kg (5 ml/kg as the solution) to 5-week male Wistar rats which had been fasting for 20 hours. Only 0.1% BSA-containing physiological saline was injected to the normal control group in the same manner. 45 minutes after the PTH injection, the rats were etherized and then subjected to celiotomy, whereby the blood was collected from the abdominal cava with a vacuum blood-collecting tube. The blood collected was immediately centrifuged by 3000 rpm, at 4° C. for 10 minutes to isolate the serum. The ionized calcium (Ca^++) concentration in the serum was immediately measured with a Ca^++ meter (Sera 250, manufactured by Horiba Manufacturing Co.).
# The compounds of the present invention were dissolved using sodium hydroxide and hydrochloric acid, in physiological saline (pH 7.4), for subcutaneous administration, in such amounts that the dose amounted to 2 ml/kg, and for oral administration, in distilled water (pH 7.4) so that the dose amounted to 5 ml/kg. They were administered 24 or 72 hours before the PTH injection. A physiological saline or a distilled water was administered to the normal control group and the control group, in the same manner. Salmon calcitonin (SCT, manufactured by Armour Co.) was dissolved in physiological saline so that the dose amounted to 2 ml/kg, and then subcutaneously administered 30 minutes before the PTH injection.
# The results for each group were expressed in terms of mean±S.E. (standard error) and comparison was made among the groups by testing by one-way analysis of variance. The significance level was taken at 5%.
# [2] = tested on: adjuvant arthritis; assay: Experiment (3)-I: therapeutic effect on adjuvant arthritis in rats; format: in vivo, male Lewis rats; conditions: po, 1 mg/kg once a day 14 days; 1 mg/kg
# Description: (§1) Specifically, for investigation of the anti-arthritic effect, experimental models of adjuvant arthritis which is resemble to rheumatoid arthritis in human were used in two test methods. In one method to test the therapeutic effect of the compounds, the compounds to be tested were administered to the animals already having the adjuvant arthritis. In the other method to test the prophylactic effect of the compounds, these were administered after the adjuvant administration, and the expression and progress of the resulting arthritis, if any, was observed.
# 0.1 ml of a suspension of dry dead cells of Mycobacterium butyricum as suspended in liquid paraffin in a proportion of 6 mg/ml was subcutaneously injected to male Lewis rats (7-week) in the tail. After 17 or 18 days, the thickness of the both hind paws was measured. One group comprising six rats in which the arthritis was noticeably observed was isolated. After the grouping day, the compound to be tested was subcutaneously or orally administered once a day for 14 days to the rats. Next day after the last administration, the thickness of the soles of the both hind legs was again measured.
# (§2) For the Experiments (3)-I and (3)-II, the compounds of the present invention were dissolved, using sodium hydroxide and hydrochloric acid in physiological saline (pH 7.4), for subcutaneous administration, in such amount that the dose amounted to 2 ml/kg, and for oral administration, in distilled water (pH 7.4) so that the dose amounted to 5 ml/kg; and indometacin (as comparative drug) was suspended in 0.5% methyl cellulose solution so that the dose amounted to 5 ml/kg. Each rat was weighed at the first day of starting the administration of the compound to be tested and at the last day of the administration of the compound, and the difference of the weight there between (ΔB.W.) was obtained.
# (§3) The results for each group were expressed in terms of mean ±S.E. (standard error) and comparison was made among the groups by testing by one-way analysis of variance. The significance level was taken at 5%.
# [3] = tested on: adjuvant arthritis; assay: Experiment (3)-II: prophylactic effect on adjuvant arthritis in rats; format: in vivo, male Lewis rats; conditions: po, 1 mg/kg once a day 21 days
# Description: as §1
# 0.05 ml of the suspension of dry dead bacilli of Mycobacterium butyricum as suspended in liquid paraffin in a proportion of 6 mg/ml was subcutaneously injected to male Lewis rats (6 to 7-week) in the left hind paw. After the adjuvant injection, the compound to be tested was administered to the rats once a day for 21 days. Next day after the last administration, the thickness of the both hind paws of the rats was measured.
# as §2, §3
# [4] = tested on: immobilization-induced atrophy of bone; assay: Inhibition of bone resorption: immobilization-induced (neurectomy) atrophy of bone in rats; format: in vivo, Wistar rats; conditions: sc, 1.0 mg/kg once a day 14 days
# [5] = sc, 0.1 mg/kg, 72 hours before PTH injection
# [6] = sc, 1.0 mg/kg, 72 hours before PTH injection
# [7] = oral, 30 mg/kg, 72 hours before PTH injection
# [8] = oral, 100 mg/kg, 72 hours before PTH injection
# [9] = sc, 0.3 mg/kg, 72 hours before PTH injection
compound,measurement,setting,value
CC(C)CCc1cc(NC(P(=O)(O)O)P(=O)(O)O)no1 [Example 25],Serum Ca++,[1]; [5],1.39 ± 0.02 m mole/liter
same,Serum Ca++,[1]; [6],1.36 ± 0.02 m mole/liter
"CCCCc1cc(NC(P(=O)(O)O)P(=O)(O)O)no1 [Example 28, [(5-n-butyl-3-isoxazolyl)amino]methylene-bis(phosphonic acid)]",Serum Ca++,[1]; [7],1.46 ± 0.02 m mole/liter
same,Serum Ca++,[1]; [8],1.31 ± 0.04 m mole/liter
same,Serum Ca++,[1]; [5],1.36 ± 0.01 m mole/liter
same,Serum Ca++,[1]; [9],1.18 ± 0.02 m mole/liter
"CC(C)=CCCc1cc(NC(P(=O)(O)O)P(=O)(O)O)no1 [Example 31, [[5-(4-methyl-3-ene)pentyl-3-isoxazolyl]amino]methylene-bis(phosphonic acid)]",Serum Ca++,[1]; [5],1.20 ± 0.01 m mole/liter
same,Serum Ca++,[1]; [9],1.05 ± 0.03 m mole/liter
O=P(O)(O)C(Nc1cc(/C=C/c2ccccc2)on1)P(=O)(O)O [Example 32],Serum Ca++,[1]; [5],1.41 ± 0.02 m mole/liter
same,Serum Ca++,[1]; [9],1.27 ± 0.02 m mole/liter
"COc1ccc2c(c1)c(CC(=O)O)c(C)n2C(=O)c1ccc(Cl)cc1 [Indometacin, reference compound]",Thickness of Paw (average of right and left paws),[2],956 ± 32 × 0.01 mm and 1044 ± 46 × 0.01 mm and 931 ± 26 × 0.01 mm
same,ΔB.W.,[2],67 ± 4 g and 51 ± 4 g and 58.2 ± 1.9 g
same,ΔB.W.,[3],261 ± 7 g
same,"Thickness of Paw, Left",[3]; adjuvant-injected paw,1096 ± 41 × 0.01 mm
same,"Thickness of Paw, Right",[3]; opposite paw,1028 ± 47 × 0.01 mm
"CC(C)(C)c1cc(NC(P(=O)(O)O)P(=O)(O)O)no1 [Known Compound (note-1), [(5t-butyl-3-isoxazolyl)amino]methylenebis(phosphonic acid), reference compound]",Serum Ca++,[1]; [9],1.51 ± 0.03 m mole/liter
same,Serum Ca++,[1]; [6],1.43 ± 0.02 m mole/liter
"CC(C)c1cc(NC(P(=O)(O)O)P(=O)(O)O)no1 [Known Compound (note-2), [(5isopropyl-3-isoxazolyl)amino]methylenebis(phosphonic acid), reference compound]",Serum Ca++,[1]; [5],1.58 ± 0.00 m mole/liter
same,Serum Ca++,[1]; [9],1.49 ± 0.01 m mole/liter
same,Serum Ca++,[1]; [6],1.39 ± 0.02 m mole/liter
"CCc1cc(NC(P(=O)(O)O)P(=O)(O)O)no1 [Manufacture Example 2, [(5-ethyl-3-isoxazolyl)amino]methylene-bis(phosphonic acid)]",Serum Ca++,[1]; [7],1.46 ± 0.02 m mole/liter
same,Serum Ca++,[1]; [8],1.16 ± 0.07 m mole/liter
same,Serum Ca++,[1]; [5],1.39 ± 0.02 m mole/liter
same,Serum Ca++,[1]; [9],1.22 ± 0.02 m mole/liter
same,Serum Ca++,"[1]; sc, 30 mg/kg, 24 hours before PTH injection",1.41 ± 0.02 m mole/liter
same,Difference of Bone Ash Content (b),[4]; nontreated minus treated humerus ashed weight,3.0 ± 0.7 mg
same,Difference of Bone Weight (a),[4]; nontreated minus treated humerus dry weight,4.8 ± 1.3 mg
"Cc1conc1NC(P(=O)(O)O)P(=O)(O)O [Manufacture Example 3, [(4-methyl-3-isoxazolyl)amino]methylene-bis(phosphonic acid)]",Serum Ca++,[1]; [9],1.45 ± 0.01 m mole/liter
same,Serum Ca++,[1]; [6],1.23 ± 0.05 m mole/liter
